Reference: patent US8821568B2, “Implant modified with non-hydroxylated vitamin D precursors” (Numat Biomedical S.L., priority 2008, dated 2014)

Tests used:
Assay type in all cases: cell-based, mouse
[1] = system: MC3T3-E1 cells; test: ELISA of 25-D3 and 1,25-D3 released to the culture media, plastic wells; details: TCP, 48 hours, 2×10^−3 to 20 nmols
Procedure: (§1) To test the effect of the different treatments onto the plastic wells, 96-well plates made of polystyrene were used and the treatments with 7-DHC performed directly onto them. Cells grown onto untreated TCP were added as a control for all the experiments. Cells were seeded at a density of 30,000 cells/cm^2 and they were maintained in α-MEM supplemented with 10% FCS and antibiotics. Culture media was collected after 48 hours, to test cytotoxicity and the production of the hydroxylated forms of vitamin D. Cells were harvested after 2 days of culture using Trizol reagent (Roche Diagnostics, Mannheim, Germany), to analyse early gene expression response of several osteoblast differentiation markers and enzymes involved in vitamin D synthesis using real-time RT-PCR.
25-D3 and 1,25-D3 released to the culture media after two days of treatment were analyzed by enzyme-linked immunosorbent assay (ELISA). Aliquots from the culture media were centrifuged at 1800 rpm for 5 minutes at 4° C. and supernatants were used for 25-D3 and 1,25-D3 determination following instructions described by the manufacturer (Immunodiagnostic Systems Ltd, Boldon, Tyne and Wear, UK).

[2] = system: MC3T3-E1 cells; test: Real-time RT-PCR of bone markers, plastic wells; details: TCP, 2 days
Procedure: as §1
RNA was isolated from cells using a monophasic solution of phenol and guanidine thiocyanate (Trizol, Roche Diagnostics, Mannheim, Germany) according to the manufacturer's protocol. RNA was quantified at 260 nm using a Nanodrop spectrophotometer (NanoDrop Technologies, Wilmington, Del., USA).
Total RNA previously isolated was reverse-transcribed to cDNA using High Capacity RNA to cDNA kit (Applied Biosystems, Foster City, Calif.) according to the protocol of the supplier. The same amount of total RNA from each sample was converted into cDNA. Each cDNA was diluted ¼ and aliquots were stored at −20° C. until the PCR reactions were carried out.
Real-time RT-PCR was performed for two reference genes: 18S ribosomal RNA (18S rRNA), glyceraldehyde-3-phosphate dehydrogenase (GAPDH), and 11 target genes alkaline phospathase (ALP), Interleukin 6 (IL-6), Collagen (Coll-1), Osteocalcin (OC), Bone Morphogenetic Protein 2 (BMP-2), Osterix (Osx), Receptor activator of nuclear factor kappa-B ligand (RANKL), Osteoprogesterin (OPG) and genes involved in vitamin D synthesis such as Vitamin D3 25-hydroxylase (CYP27A1), 25 hydroxyvitamin D3-1-alpha hydroxylase (CYP27B1) and 1,25-dihydroxyvitamin D3 24-hydroxylase (CYP24A1).
Real-time PCR were performed in the Lightcycler 480® (Roche Diagnostics, Germany). Each reaction contained 5 μl of LightCycler-FastStart DNA Master^PLUS SYBR Green I (Roche Diagnostics, Mannheim, Germany), 0.5 μM of the sense and antisense specific primers (Table 1) and 3 μl of the cDNA dilution in a final volume of 10 μl. The normal amplification program consisted of a preincubation step for denaturation of the template cDNA (10 min 95° C.), followed by 45 cycles consisting of a denaturation step (10 s 95° C.), an annealing step (10 s 60° C., except for ALP that was 10 s at 65° C., OSX with 10 s at 68° C. and CYP24A1 at 58° C. 10 s) and an extension step (10 s 72° C.). After each cycle, fluorescence was measured at 72° C. Every run included a negative control without cDNA template. To confirm amplification specificity, PCR products were subjected to a melting curve analysis on the LightCycler and subsequently 2% agarose/TAE gel electrophoresis, Tm and amplicon size, respectively.
To allow relative quantification after PCR, real-time efficiencies were calculated from the given slopes in the LightCycler 480 software (Roche Diagnostics, Mannheim, Germany) using serial dilutions. Relative quantification after PCR was calculated by normalizing target gene concentration in each sample by the concentration mean of the two reference genes in given sample using the “advanced relative quantification method” provided by the LightCycler 480 analysis software.

[3] = system: MC3T3-E1 cells; test: ALP activity in cell monolayer on coated titanium implants; details: Ti implants, day 21
Procedure: To test the effect of the surface modification, 96-well plates were used. Ti disks were placed into the wells and treatments and UV-activation were performed over there. Cells grown onto untreated polystyrene tissue culture plastic (TCP) were added as a control for all the experiments. Cells were seeded at a density of 30,000 cells/cm^2 and they were maintained in α-MEM supplemented with 10% FCS and antibiotics. Culture media was collected after 48 hours, to test cytotoxicity and the production of the hydroxylated form of vitamin D, 25-D3. Cells were harvested after two days of culture using Trizol reagent (Roche Diagnostics, Mannheim, Germany), to analyze gene expression of several osteoblast differentiation markers and enzymes involved in vitamin D synthesis using real-time RT-PCR. On the other hand, MC3T3-E1 cells were harvested after 21 days to measure calcium content and ALP activity in the cell monolayer.
Cell monolayer was collected at 21 cell differentiation days and PBS 0.1% Triton X-100 was added to solubilize proteins. Cell lysates were put into freeze/thaw cycles (liquid nitrogen and 37° C. water bath) to improve protein recovery. After centrifugation at 33,000 g for 15 min at 4° C., supernatants acquired were assayed for ALP activity, calcium content and total protein determination. ALP activity was calculated by measuring the cleavage of p-Nitrophenyl Phosphate (pNPP) (Sigma, St. Louis, Mo., USA) in a soluble yellow end product which absorbs at 405 nm. A volume of 100 μl of this substrate was used in combination with 25 μl of each sample supernatant or standard point. The standard curve was prepared from calf intestinal alkaline phosphatase (CIAP, 1 U/μl) (Promega, Madison, Wis., USA) by mixing 1 μl from the stock CIAP with 5 ml of alkaline phosphatase buffer (1:5000 dilution), and then making 1:5 serial dilutions. Once the reaction was carried out, after 30 min in dark at room temperature, it was stopped with the addition of 50 μl of 3 M sodium hydroxide. At this point, absorbance was read at 405 nm.
Total protein was determined using a BCA protein assay kit (Pierce, Rockford, Ill., USA). For the analysis, cell supernatants were diluted 1:1 in PBS 0.1% Triton X-100. Standard curve and samples were analyzed as described by the manufacturer and reading the absorbance at 562 nm.

SMILES: CC(C)CCC[C@@H](C)[C@H]1CC[C@H]2C3=CC=C4C[C@@H](O)CC[C@]4(C)[C@H]3CC[C@]12C [7-DHC, 7-dehydrocholesterol]
- Production of 25-D3 and 1,25-D3 (dose-response) ([1]; activated by UV irradiation): a dose-response was found
- Production of 25-D3 and 1,25-D3 (dose-response) ([1]; not UV-treated): no dose-response was detected
- Collagen type-1 mRNA levels ([2]; 0.2 nmols UV-treated vs same treatment non UV-irradiated): increased mRNA levels
- Osteocalcin mRNA levels ([2]; 2 nmols UV-treated vs same treatment non UV-irradiated): statistical differences
- Bone morphogenetic protein 2 mRNA levels ([2]; 2×10^−2 nmols UV-treated vs non-irradiated): significantly lower levels
- ALP mRNA levels ([2]; 2×10^−3 nmols UV-treated vs same treatment non UV-irradiated): Higher ALP mRNA levels
- Osterix expression levels ([2]; all UV-treated groups vs non irradiated, significant at 0.2 and 2 nmols): Higher expression levels
- IL-6 mRNA levels ([2]; different doses, UV-treated vs UV-untreated): No significant differences
- RANKL mRNA levels ([2]; some UV-untreated samples compared to their control): lower
- ALP activity ([3]; UV-treated vs UV-untreated group): significant higher ALP activity
- ALP activity ([3]; UV-untreated, percentage of ethanol UV-untreated group set to 100%, mean±SEM): 44.75±3.50%
